Data reported in patent US4500467A, “Benzoylthio compounds, their preparation and their use as drugs” (BASF Aktiengesellscaft, priority 1982, dated 1985).

Molecular target: T1, angiotensin converting enzyme (Rattus norvegicus, UniProt P47820)
T1 construct: from tissue; host or cells: rat blood plasma (ex vivo, after oral dosing)
T1 sequence (P47820 36-1238 limits assumed): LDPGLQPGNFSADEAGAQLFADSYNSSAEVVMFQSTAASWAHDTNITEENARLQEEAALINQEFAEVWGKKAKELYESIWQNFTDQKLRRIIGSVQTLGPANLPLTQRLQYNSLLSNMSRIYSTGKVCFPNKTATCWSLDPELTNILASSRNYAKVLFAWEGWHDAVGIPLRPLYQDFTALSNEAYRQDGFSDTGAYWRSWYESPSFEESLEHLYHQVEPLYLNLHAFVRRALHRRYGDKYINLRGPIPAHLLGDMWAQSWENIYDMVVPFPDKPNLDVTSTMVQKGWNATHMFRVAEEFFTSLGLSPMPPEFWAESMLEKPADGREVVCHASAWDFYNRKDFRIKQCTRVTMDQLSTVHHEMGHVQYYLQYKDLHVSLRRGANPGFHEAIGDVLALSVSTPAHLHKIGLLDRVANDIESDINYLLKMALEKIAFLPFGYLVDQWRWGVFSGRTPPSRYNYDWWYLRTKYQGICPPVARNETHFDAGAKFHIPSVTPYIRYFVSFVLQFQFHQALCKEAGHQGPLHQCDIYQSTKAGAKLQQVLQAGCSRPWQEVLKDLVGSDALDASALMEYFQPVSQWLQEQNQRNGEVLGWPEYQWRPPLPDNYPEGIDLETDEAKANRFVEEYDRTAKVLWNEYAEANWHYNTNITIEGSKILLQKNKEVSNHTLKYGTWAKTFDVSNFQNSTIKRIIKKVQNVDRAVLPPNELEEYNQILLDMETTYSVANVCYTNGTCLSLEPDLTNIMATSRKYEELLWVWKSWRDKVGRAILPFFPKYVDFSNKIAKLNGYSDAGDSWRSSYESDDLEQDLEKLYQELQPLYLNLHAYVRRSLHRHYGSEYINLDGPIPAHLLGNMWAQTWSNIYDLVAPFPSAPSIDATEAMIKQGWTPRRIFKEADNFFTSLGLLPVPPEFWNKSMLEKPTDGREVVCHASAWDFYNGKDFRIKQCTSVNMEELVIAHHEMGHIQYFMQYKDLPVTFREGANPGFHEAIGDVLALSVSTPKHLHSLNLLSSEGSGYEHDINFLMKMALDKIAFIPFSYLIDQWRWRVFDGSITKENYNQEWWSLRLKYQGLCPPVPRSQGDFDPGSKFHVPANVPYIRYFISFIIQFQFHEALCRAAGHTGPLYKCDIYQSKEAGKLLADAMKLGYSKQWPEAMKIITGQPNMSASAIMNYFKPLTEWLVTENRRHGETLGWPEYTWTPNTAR
Test: inhibition of angiotensin converting enzyme ex vivo in rats (plasma before and 2 hours after oral administration, 14C-hippuryl-histidylleucine substrate)
Conditions: for angiotensin converting enzyme is inhibited in doses smaller than the captopril dose: compared with captopril dose; for ED50: rat, plasma 2 hours after administration, read-out: ED 50% (dose which produces 50% inhibition of angiotensin converting enzyme); for relative activity: relative to captopril = 1.00, from ED 50%
Description: The following method was used in investigating the pharmacodynamic effect (inhibition of angiotensin converting enzyme ex vivo in rats):
Before, and 2 hours after, oral administration of the substance, blood was withdrawn from the animals, and the plasma was diluted 1:6 with H2 O. The diluted plasma (100 μl) was incubated with 50 μl of ^14 C-hippuryl-histidylleucine solution (K phosphate 260 mM, NaCl 938 mM, pH=8.3) for 1 hour at 37° C. The reaction was terminated by adding 2 ml of 0.1N HCl, and the product, ^14 C-hippuric acid, was extracted with toluene scintillator (PPO+POPOP+toluene+21% of isoamyl alcohol) and determined using a scintillation counter for liquids. After subtraction of the blank value (incubation time=0 minute), the percentage inhibition was determined from the enzymatic activities in the plasma before and after administration of the substance. The ED 50%, ie. the dose which produces 50% inhibition, is calculated from the individual inhibitory values by linear regression following logit-log transformation.

Structure (SMILES): O=C(SC[C@H](SC(=O)c1ccccc1)C(=O)N[C@@H](Cc1c[nH]c2ccccc12)C(=O)O)c1ccccc1 [Example 68, N-[(R)-2,3-Bis-(benzoylthio)-propionyl]-tryptophan]
- angiotensin converting enzyme is inhibited in doses smaller than the captopril dose: 5 times smaller
- ED50: 0.2 mg/kg
- relative activity: 5.0

Structure (SMILES): C[C@H](NC(=O)[C@H](CSC(=O)c1ccccc1)SC(=O)c1ccccc1)C(=O)N1CCC[C@H]1C(=O)O [Example 70, N-[(R)-2,3-Bis-(benzoylthio)-propionyl]-alanylproline]
- angiotensin converting enzyme is inhibited in doses smaller than the captopril dose: 5 times smaller
- ED50: 0.2 mg/kg
- relative activity: 5.0
